In patent US20140302556A1, “CONTROLLING O-GLYCOSYLATION IN LOWER EUKARYOTES” (priority 2011, published 2014):

Tests used:
[1] = tested on: Pichia pastoris mutant strain YGLY17156; assay: Growth on YSD agar plates containing PMTi-4; type: cell-based; conditions: agar plate, 24° C.
[2] = tested on: Pichia pastoris mutant strain YGLY17157; assay: Growth on YSD agar plates containing PMTi-4; type: cell-based; conditions: agar plate, 24° C.
Procedure: (§1) UV mutagenesis was performed as described by Winston (Curr. Protoc. Mol. Biol. 82:13.3B.1-13.3B.5 (2008)). Briefly, Pichia pastoris strain YGLY19376 (GFI5.0, pmt4Δ, expressing a recombinant IgG1) was grown in 40 mL YSD liquid medium over night at 24° C. Upon reaching an OD600 of five, a 10 mL aliquot of culture was transferred into an empty 100 mm sterile Petri dish, and treated, with the lid off, with 12 mJ/cm^2 of UV irradiation. After the UV treatment, the Petri dish was immediately covered with aluminum foil (to prevent photo-induced DNA repair). The mutagenized cells were allowed to recover at 24° C. for three hours in the dark. Two mL of the recovered YGLY19376 was then centrifuged at 2,000 rpm for five minutes. The cell pellet was then re-suspended in 400 μL 2% BMGY media and subsequently plated onto YSD agar plates containing 2 μg/mL or 4 μg/mL PMTi-4 PMT inhibitor (Example 4 compound of U.S. Published Application No. 20110076721 having the structure
After seven days incubation at 24° C., colonies were picked and re-streaked onto fresh PMTi-4-containing plates at the above concentrations.

[3] = tested on: un-mutagenized YGLY19376 parent strain; assay: Growth on agar plates containing PMT inhibitor; type: cell-based, Pichia pastoris; conditions: agar plate
Procedure: as §1

[4] = tested on: non-mutagenized parent strain YGLY19376; assay: 1 L DasGip MeOH fed-batch fermentation with PMTi-4 (lysis, IgG1 titer, glycans); type: cell-based, Pichia pastoris
Procedure: (§2) Fed-batch fermentations, IgG1 purifications, characterization of N- and O-glycan profiles as well as all other analytical assays, were performed essentially as previously described (Barnard et al., J. Ind. Microbiol. Biotechnol. 37(9): 961-71 (2010); Potgieter et al., J. Biotechnol. 139(4):318-25 (2009)).
(§3) Both PMT inhibitor-resistant mutant strains (YGLY17156 and YGLY17157), as well as the non-mutagenized parent strain YGLY19376 were grown in 1 L DasGip fermentors using a standard MeOH fed-batch fermentation protocol (See for example, Potgieter et al., J. Biotechnol. 139(4): 318-25 (2009) and Hopkins et al., Glycobiol. August 12. [Epub ahead of print] PubMed PMID: 21840970 (2011)).
(§4) The robustness of the strains was determined by examining the fermentation cell cultures under microscope. Depending on the proportion of cell debris, a lysis-score was assigned from 0.5 to 5, with 5 being the worst lysis.
The inoculum seed flasks were inoculated from yeast patches (isolated from a single colony) on agar plates into 0.1 L of 4% BSGY in a 0.5-L baffled flask. Seed flasks were grown at 180 rpm and 24° C. (Innova 44, New Brunswick Scientific) for 48 hours. Cultivations were done in 1 L (fedbatch-pro, DASGIP BioTools) bioreactors. Vessels were charged with 0.54 L of 0.22 μm filtered 4% BSGY media and autoclaved at 121° C. for 45 minutes. […]

[5] = tested on: PMTi-4-resistant mutant strain YGLY17156; assay: 1 L DasGip MeOH fed-batch fermentation with PMTi-4 (lysis, WCW, IgG1 titer, glycans); type: cell-based, Pichia pastoris
Procedure: as §2, §3, §4
(§5) The inoculum seed flasks were inoculated from yeast patches (isolated from a single colony) on agar plates into 0.1 L of 4% BSGY in a 0.5-L baffled flask. Seed flasks were grown at 180 rpm and 24° C. (Innova 44, New Brunswick Scientific) for 48 hours. Cultivations were done in 1 L (fedbatch-pro, DASGIP BioTools) bioreactors. Vessels were charged with 0.54 L of 0.22 μm filtered 4% BSGY media and autoclaved at 121° C. for 45 minutes. After sterilization and cooling; the aeration, agitation and temperatures were set to 0.7 vvm, 400 rpm and 24° C. respectively. The pH was adjusted to and controlled at 6.5 using 30% ammonium hydroxide. Inoculation of a prepared bioreactor occurred aseptically with 60 mL from a seed flask. Agitation was ramped to maintain 20% dissolved oxygen (DO) saturation. After the initial glycerol charge was consumed, denoted by a sharp increase in the dissolved oxygen, a 50% w/w glycerol solution containing 5 mg/L biotin and 32.3 mg/L PMTi4 was triggered to feed at 3.68 mL/hr for eight hours. During the glycerol fed-batch phase 0.375 mL of PTM2 salts were injected manually. Completion of the glycerol fed-batch was followed by a 0.5 hour starvation period and initiation of the induction phase. A continuous feed of a 50% v/v methanol solution containing 2.5 mg/L biotin and 6.25 mL/L PTM2 salts was started at a flat rate of 2.16 mL/hour. Injections of 0.25 mL of 1.9 mg/mL PMTi-4 (in methanol) were added after each 24 hours of induction. In general, individual fermentations were harvested within 36-110 hours of induction. The culture broth was clarified by centrifugation (Sorvall Evolution RC, Thermo Scientific) at 8500 rpm for 40 min and the resulting supernatant was submitted for purification.

[6] = tested on: PMTi-4-resistant mutant strain YGLY17157; assay: as above; type: cell-based, Pichia pastoris
Procedure: as §2, §3, §4, §5

CC(C)COCC(Oc1cc(/C=C2\SC(=S)N(CC(=O)O)C2=O)ccc1OCCc1ccc(F)cc1)c1ccccc1 (stereo not drawn) [PMTi-4]
PMTi-4 concentration at which robust growth is exhibited [1]: at least 4 μg/mL | PMTi-resistance level [2]: at least 1 μg/mL | PMT inhibitor concentration at which strain failed to grow [3]: ≤ 0.1 µg/mL | O-glycan Occupancy (mannitol/protein) ([4]; IgG1): 1.0 mol/mol | Lysis at 24° C. Day 2 ([4]; lysis-score 0.5 to 5, 5 worst): 3 | O-glycan Occupancy (mannitol/protein) ([5]; IgG1): 2.4 mol/mol | Lysis at 24° C. Day 1 ([5]; lysis-score 0.5 to 5, 5 worst): 0.5 | Lysis at 24° C. Day 3 ([5]; lysis-score 0.5 to 5, 5 worst): 1 | Lysis at 24° C. Day 4 ([5]; lysis-score 0.5 to 5, 5 worst): 1.5 | WCW Day 4 ([5]; wet cell weight): 236 | O-glycan Occupancy (mannitol/protein) ([6]; IgG1): 0.6 mol/mol | Lysis at 24° C. Day 1 ([6]; lysis-score 0.5 to 5, 5 worst): 0.5 | Lysis at 24° C. Day 3 ([6]; lysis-score 0.5 to 5, 5 worst): 1 | Lysis at 24° C. Day 4 ([6]; lysis-score 0.5 to 5, 5 worst): 1 | WCW Day 4 ([6]; wet cell weight): 303
